The molecules below were run against T1, human liver FBPase (Homo sapiens, UniProt P09467) (assay: FBPase assay: inorganic phosphate release (malachite green)). Conditions: recombinant human liver FBPase, 50 μM fructose-1,6-bisphosphate, read-out at 620 nm.
T1 construct: made in house; host or cells: E. coli
T1 sequence (P09467 2-338 limits assumed): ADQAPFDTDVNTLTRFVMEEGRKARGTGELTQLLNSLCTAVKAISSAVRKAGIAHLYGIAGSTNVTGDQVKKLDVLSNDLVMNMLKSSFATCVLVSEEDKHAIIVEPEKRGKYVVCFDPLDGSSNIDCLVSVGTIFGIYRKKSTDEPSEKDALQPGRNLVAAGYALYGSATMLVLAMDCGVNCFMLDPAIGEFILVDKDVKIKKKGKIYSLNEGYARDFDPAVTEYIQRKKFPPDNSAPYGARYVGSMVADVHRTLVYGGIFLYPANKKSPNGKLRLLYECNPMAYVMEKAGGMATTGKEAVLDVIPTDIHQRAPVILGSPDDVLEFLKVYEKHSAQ
Format: biochemical
Method: The following tests were carried out for evaluating the inhibitory activity of the compounds of the present invention against human liver FBPase (Swissprot Data base reference P09467, entry F16P_HUMAN).
Human liver FBPase cDNA (NM_000507) was purchased from Origene Technologies, Inc, subcloned in a vector for expression in E. Coli., and sequenced. Recombinant human liver FBPase (hlFBPase) was purified according to the following protocol that uses heat denaturation similarly to that described by El-Maghrabi et. al. [El-Maghrabi, M. R. et al. “Isolation of a human liver fructose-1,6-bisphosphatase cDNA and expression of the protein in Escherichia coli.” J Biol Chem 268:9466-9472, 1993.]. Briefly, E. coli cells, transiently expressing very high levels of soluble and active human liver FBPase, were suspended in 20 mM Tris-HCl pH 7.5, 1 mM EDTA, 1 mM DTT and were lysed by French press. The soluble extract was heat denatured at 65° C. for 5 min, and insoluble, denatured proteins were removed by centrifugation. The extract was then applied to a BioRad Macro-Prep High Q column equilibrated with 20 mM Tris-HCl pH 7.5, 1 mM EDTA, 1 mM DTT and the flow-through (containing FBPase activity) was collected and applied to a BioRad Macro-Prep HS column equilibrated with 20 mM HEPES pH 7.2, 1 mM DTT. A gradient of increasing NaCl concentration was then applied to the HS column and fractions were collected. Fractions containing active FBPase were pooled and further purified by size exclusion chromatography on a Sephacryl S200 column equilibrated in 20 mM Tris-HCl pH 7.5, 150 mM NaCl, 1 mM EDTA, 1 mM DTT. Purity of the enzyme preparation was >90% as assessed by Mass spectrometry.
Recombinant human liver FBPase (hlFBPase) activity was assayed through measuring the inorganic phosphate release that results from the hydrolysis of Fructose-1,6-bisphosphate by the enzyme. As described by Baykov A. A. et al. in [Baykov A. A et al., “Malachite Green procedure for orthophosphate determination and its use in alkaline phosphatase-based enzyme immunoassays”. Anal. Biochem., 171:266-270, 1988], inorganic phosphate can be readily quantified by spectrophotometry at 620 nm after complexation with ammonium molybdate/malachite green reagent. Enzymatic reaction was carried out with modifications of the procedure described by Wright S. W. et al. [Wright S. W. et al., “Anilinoquinazoline inhibitors of Fructose-1,6-bisphosphatase bind to a novel allosteric site: synthesis, in vitro characterization, and X-ray crystallography”. J. Med. Chem. 45:3865-3877, 2002]. Specifically, the reaction was carried out in 96 well plates in a final volume of 100 μl in the presence or in the absence of allosteric inhibitors. Reaction was started adding 25 ng of hlFBPase to the reaction mixture containing 50 mM HEPES-KOH buffer pH 7.2, 2 mM MgCl2, 2 mM EDTA, 1 mM DTT, 50 μM fructose-1,6-bisphosphate and 1% DMSO. After 50 minutes incubation at room temperature, the phosphate released was allowed to form a colored complex for 10 min by adding 150 μl of ammonium molybdate/malachite green reagent containing 0.03% malachite green, 0.2% ammonium molybdate, 0.05% Triton X-100 and 0.7 M H2SO4 in water that was stirred for 30 min at room temperature and filtered through 0.2 μm filter. Under these conditions, the assay was linear with time and able to detect FBPase inhibition after spectrophotometric read-out at 620 nm.

Question: How did the IC50 turn out when `Cc1ccc2sc(S(=O)(=O)NC(=O)Nc3ncc(Br)s3)cc2c1` [Example 1, N-[(5-Bromo-1,3-thiazol-2-yl)carbamoyl]-5-methyl-1-benzothiophene-2-sulfonamide] was run?
Answer: 89 nM

Question: `Cc1cccc2cc(S(=O)(=O)NC(=O)Nc3ncc(Br)s3)sc12` [Example 14, N-[(5-Bromo-1,3-thiazol-2-yl)carbamoyl]-7-methyl-1-benzothiophene-2-sulfonamide] was tested. Which IC50 did it give?
Answer: 161 nM

Question: `COc1cccc2c(S(=O)(=O)NC(=O)Nc3ncc(Br)s3)c[nH]c12` [Example 43, N-[(5-bromo-1,3-thiazol-2-yl)carbamoyl]-7-methoxy-1H-indole-3-sulfonamide] was tested. Which IC50 did it give?
Answer: 4060 nM

Question: Which IC50 does the source give for `COCCc1sc(S(=O)(=O)NC(=O)Nc2nc3c(C)cccc3s2)cc1C` [Example 91, 5-(2-Methoxyethyl)-4-methyl-N-[(4-methyl-1,3-benzothiazol-2-yl)carbamoyl]thiophene-2-sulfonamide] here?
Answer: 375 nM

Question: For `Cn1cc(S(=O)(=O)NC(=O)Nc2ncc(Br)s2)c2cc(OCc3ccccc3)ccc21` [Example 24, 5-(Benzyloxy)-N-[(5-bromo-1,3-thiazol-2-yl)carbamoyl]-1-methyl-1H-indole-3-sulfonamide], which IC50 is on record?
Answer: 683 nM

Question: With `COc1ccc2nc(NC(=O)NS(=O)(=O)c3cc(C)c(CCO)s3)sc2n1` [Example 56, 5-(2-Hydroxyethyl)-N-[(5-methoxy[1,3]thiazolo[5,4-b]pyridin-2-yl)carbamoyl]-4-methylthiophene-2-sulfonamide] as the molecule, how does the IC50 read?
Answer: 534 nM

Question: Which IC50 does the source give for `CCc1sc(NC(=O)NS(=O)(=O)c2cc(C)c(CCOC(C)=O)s2)nc1-c1ccccc1` [Example 80, 2-[5-({[(5-Ethyl-4-phenyl-1,3-thiazol-2-yl)carbamoyl]amino}sulfonyl)-3-methyl-2-thienyl]ethyl acetate] here?
Answer: 161 nM

Question: With `CSc1sc(NC(=O)NS(=O)(=O)c2cc(C)c(CCOC(C)=O)s2)nc1C` [Example 85, 2-{3-Methyl-5-[({[4-methyl-5-(methylthio)-1,3-thiazol-2-yl]carbamoyl}amino)sulfonyl]-2-thienyl}ethyl acetate] as the molecule, how does the IC50 read?
Answer: 160 nM

Question: `O=C(Nc1ncc(Br)s1)NS(=O)(=O)c1cc2ccccc2[nH]1` [Example 20, N-[(5-Bromo-1,3-thiazol-2-yl)carbamoyl]-1H-indole-2-sulfonamide] was tested. Which IC50 did it give?
Answer: 134 nM

Question: How did the IC50 turn out when `COc1sc(NC(=O)NS(=O)(=O)c2cn(C)c3c(OC)cccc23)nc1C` [Example 52, 7-Methoxy-N-[(5-methoxy-4-methyl-1,3-thiazol-2-yl)carbamoyl]-1-methyl-1H-indole-3-sulfonamide] was run?
Answer: 771 nM

Question: For `COCCc1sc(S(=O)(=O)NC(=O)Nc2nc(C)c(OC)s2)cc1C` [Example 96, 5-(2-Methoxyethyl)-N-[(5-methoxy-4-methyl-1,3-thiazol-2-yl)carbamoyl]-4-methylthiophene-2-sulfonamide], which IC50 is on record?
Answer: 637 nM

Question: Which IC50 does the source give for `COc1cnc(NC(=O)NS(=O)(=O)c2cc3cccc(OC)c3s2)s1` [Example 54] here?
Answer: 1280 nM

Question: Which IC50 does the source give for `COc1cccc2sc(NC(=O)NS(=O)(=O)c3cc(C)c(CCO)s3)nc12` [Example 93, 5-(2-Hydroxyethyl)-N-[(4-methoxy-1,3-benzothiazol-2-yl)carbamoyl]-4-methylthiophene-2-sulfonamide] here?
Answer: 141 nM

Question: With `COc1cccc2cc(S(=O)(=O)NC(=O)Nc3ncc(Br)s3)n(C)c12` [Example 40, N-[(5-bromo-1,3-thiazol-2-yl)carbamoyl]-7-methoxy-1-methyl-1H-indole-2-sulfonamide] as the molecule, how does the IC50 read?
Answer: 329 nM

Question: How did the IC50 turn out when `Cc1cc(S(=O)(=O)NC(=O)Nc2nc3c(C)cccc3s2)sc1CCO` [Example 94, 5-(2-Hydroxyethyl)-4-methyl-N-[(4-methyl-1,3-benzothiazol-2-yl)carbamoyl]thiophene-2-sulfonamide] was run?
Answer: 64 nM

Question: `Cn1cc(S(=O)(=O)NC(=O)Nc2ncc(Br)s2)c2cccc(Br)c21` [Example 34, 7-Bromo-N-[(5-bromo-1,3-thiazol-2-yl)carbamoyl]-1-methyl-1H-indole-3-sulfonamide] was tested. Which IC50 did it give?
Answer: 296 nM

Question: `CCc1sc(NC(=O)NS(=O)(=O)c2cc(C)c(CCO)s2)nc1C` [Example 70, N-[(5-Ethyl-4-methyl-1,3-thiazol-2-yl)carbamoyl]-5-(2-hydroxyethyl)-4-methylthiophene-2-sulfonamide] was tested. Which IC50 did it give?
Answer: 417 nM

Question: `Cn1cc(S(=O)(=O)NC(=O)Nc2ncc(Br)s2)c2cccc(OCc3ccccc3)c21` [Example 41, 7-(Benzyloxy)-N-[(5-bromo-1,3-thiazol-2-yl)carbamoyl]-1-methyl-1H-indole-3-sulfonamide] was tested. Which IC50 did it give?
Answer: 124 nM

Question: How did the IC50 turn out when `CC(=O)OCCc1sc(S(=O)(=O)NC(=O)Nc2nc(C)c(Br)s2)cc1C` [Example 64, 2-[5-({[(5-Bromo-4-methyl-1,3-thiazol-2-yl)carbamoyl]amino}sulfonyl)-3-methyl-2-thienyl]ethyl acetate] was run?
Answer: 188 nM

Question: How did the IC50 turn out when `CCc1sc(NC(=O)NS(=O)(=O)c2cc(C)c(CCOC)s2)nc1C` [Example 60, N-[(5-Ethyl-4-methyl-1,3-thiazol-2-yl)carbamoyl]-5-(2-methoxyethyl)-4-methylthiophene-2-sulfonamide] was run?
Answer: 341 nM

Question: With `Cn1cc(S(=O)(=O)NC(=O)Nc2ncc(Br)s2)c2cccc(OCCO)c21` [Example 49, N-[(5-Bromo-1,3-thiazol-2-yl)carbamoyl]-7-(2-hydroxyethoxy)-1-methyl-1H-indole-3-sulfonamide] as the molecule, how does the IC50 read?
Answer: 104 nM

Question: Which IC50 does the source give for `Cc1c(S(=O)(=O)NC(=O)Nc2ncc(Br)s2)sc2ccc(Br)cc12` [Example 5, 5-Bromo-N-[(5-bromo-1,3-thiazol-2-yl)carbamoyl]-3-methyl-1-benzothiophene-2-sulfonamide] here?
Answer: 1470 nM

Question: How did the IC50 turn out when `COCCOc1cccc2cc(S(=O)(=O)NC(=O)Nc3ncc(Br)s3)sc12` [Example 38, N-[(5-bromo-1,3-thiazol-2-yl)carbamoyl]-7-(2-methoxyethoxy)-1-benzothiophene-2-sulfonamide] was run?
Answer: 179 nM

Question: `COc1cccc2cc(S(=O)(=O)NC(=O)Nc3ncc(Br)s3)sc12` [Example 39, N-[(5-bromo-1,3-thiazol-2-yl)carbamoyl]-7-methoxy-1-benzothiophene-2-sulfonamide] was tested. Which IC50 did it give?
Answer: 105 nM

Question: Which IC50 does the source give for `CCc1sc(NC(=O)NS(=O)(=O)c2cc(C)c(CCO)s2)nc1-c1ccccc1` [Example 81, N-[(5-Ethyl-4-phenyl-1,3-thiazol-2-yl)carbamoyl]-5-(2-hydroxyethyl)-4-methylthiophene-2-sulfonamide] here?
Answer: 102 nM

Question: `O=C(Nc1ncc(Br)s1)NS(=O)(=O)c1cc2cc(Cl)ccc2s1` [Example 13, N-[(5-Bromo-1,3-thiazol-2-yl)carbamoyl]-5-chloro-1-benzothiophene-2-sulfonamide] was tested. Which IC50 did it give?
Answer: 111 nM

Question: How did the IC50 turn out when `COC(=O)c1ccc2c(c1)c(S(=O)(=O)NC(=O)Nc1ncc(Br)s1)cn2C` [Example 25, Methyl 3-({[(5-bromo-1,3-thiazol-2-yl)carbamoyl]amino}sulfonyl)-1-methyl-1H-indole-5-carboxylate] was run?
Answer: 731 nM

Question: Which IC50 does the source give for `CCc1sc(NC(=O)NS(=O)(=O)c2cc(C)c(CCO)s2)nc1C(C)C` [Example 79, N-[(5-Ethyl-4-isopropyl-1,3-thiazol-2-yl)carbamoyl]-5-(2-hydroxyethyl)-4-methylthiophene-2-sulfonamide] here?
Answer: 188 nM

Question: How did the IC50 turn out when `Cc1cc(S(=O)(=O)NC(=O)Nc2nc(C)c(SC(F)(F)F)s2)sc1CCO` [Example 98, 6-(2-Hydroxyethyl)-4-methyl-N-({4-methyl-5-[(trifluoromethyl)thio]-1,3-thiazol-2-yl}carbamoyl)thiophene-2-sulfonamide] was run?
Answer: 177 nM

— patent US7973051B2 (Hoffman-La Roche Inc., priority 2007, dated 2011)
